Source: patent US6933310B1, “Therapeutic agent for amyotrophic lateral sclerosis (ALS)” (Mitsubishi Pharma Corporation, priority 2000, dated 2005)

Assays:
ALS patients = settings: administered intraspinally to ALS patients; cited from earlier work
ALS = settings: some reported test results; cited from earlier work
Wobbler mice [1] = test: Forelimb grip strength in Wobbler mice; format: in vivo, mouse; settings: 10 mg/kg orally, 4 weeks, vs control group (FIG. 2)
Description: (§1) Wobbler mice (Ikeda K. et al., Ann. Neurol. vol. 34, p304, 1993; Mitsumoto H. et al., Ann. Neurol. vol. 36, pp142 to 148, 1994; Mitsumoto H. et al., Science, vol. 265, pp1107 to 1110, 1994) were used.
At 3 to 4 weeks old, with the development of the symptom of body tremors, Wobbler mice were diagnosed with the onset of the disease. Immediately after being diagnosed to have the beginnings of the disease, the mice were orally administered with the drug of the present invention (3-methyl-1-phenyl-2-pirazoline-5-on; also referred to as MCI-186 in the drawings) (10 mg/kg), and the mice of a control group were administered with vehicles, by a blind test continually for 4 weeks. […]
The grip strength of the forelimb was measured (Ikeda et al., Neuromusc. Disord., 5, (1995), 383–390; K. Ikeda et al., J. Neurol. Sci., 160, (1998) 9–15; K. Ikeda et al., Neurosci. Lett., 250 (1998) 9–12; K. Ikeda et al., Muscle Nerve, 18 (1995) 1344–1347; K. Ikeda et al., Neurol. Res., 17 (1995) 445–448; K. Ikeda et al., Ann. Neurol., 37 (1995) 505–511; K. Ikeda et al., Brain Res., 726 (1996) 91–97; H. Mitsumoto et al., Ann. Neurol., 36 (1994) 142–148; and H. Mitsumoto et al., Science, 265 (1994) 1107–1110). […]
The scale of the degree of forelimb deformity was analyzed by the non-parametric Wilcoxon signed rank-sum test. […]

Wobbler mice [2] = test: Forelimb deformity grading in Wobbler mice; format: in vivo, mouse; settings: 10 mg/kg orally, 4 weeks, vs control group (FIG. 1)
Description: as §1
(§2) At 3 to 4 weeks old, with the development of the symptom of body tremors, Wobbler mice were diagnosed with the onset of the disease. Immediately after being diagnosed to have the beginnings of the disease, the mice were orally administered with the drug of the present invention (3-methyl-1-phenyl-2-pirazoline-5-on; also referred to as MCI-186 in the drawings) (10 mg/kg), and the mice of a control group were administered with vehicles, by a blind test continually for 4 weeks. The administration of the drug was completed at 7 to 8 weeks old after birth, and the test was conducted with n=10 for each test group.
The degree of forelimb deformity was classified into four grades: 1 (paw atrophy), 2 (curled digits), 3 (curled wrists), and 4 (forelimb flexion to chest), and then evaluated. The progress from 1 to 4 means that the symptom became worse.
The scale of the degree of forelimb deformity was analyzed by the non-parametric Wilcoxon signed rank-sum test. Muscle strength, weight of biceps muscle, mean diameter of muscle fibers and number of motor neurons were statistically analyzed by unpaired Student's t-test. In all tests, the significance level of 5% was set for both sides.

Wobbler mice [3] = test: Number of spinal motor neurons in Wobbler mice; format: in vivo, mouse; settings: 10 mg/kg orally, 4 weeks, cervical spinal cord C5-6, vs control group (FIG. 4)
Description: as §1, §2
Wobbler mice (n=10 per group) that had been used for morphological study on the right brachial biceps muscles were perfused via an intracardiac catheter with phosphate buffered saline, and then 4% paraformaldehyde/1% glutaraldehyde/0.1 M sodium phosphate buffer (pH 7.4). […]
(§3) The scale of the degree of forelimb deformity was analyzed by the non-parametric Wilcoxon signed rank-sum test. Muscle strength, weight of biceps muscle, mean diameter of muscle fibers and number of motor neurons were statistically analyzed by unpaired Student's t-test. […]

Wobbler mice [4] = test: Weight and morphology of right brachial biceps muscle in Wobbler mice; format: in vivo, mouse; settings: 10 mg/kg orally, 4 weeks
Description: as §1, §2
After the end of drug administration, Wobbler mice (n=10 per group) were ether anesthetized, and then the right brachial biceps muscles were excised under dissecting microscope. The excised biceps muscles were correctly measured, and then frozen. […]
as §3

mouse = settings: intraabdominal administration; cited from earlier work
[5] = National Cancer Institute Report, 89, 1978; cited from earlier work

human recombinant Cu/Zn SOD: human recombinant Cu/Zn superoxide dismutase administered intraspinally to ALS patients
therapeutic effect in ALS patients (ALS patients): effective therapeutic effects were not obtained

Nc1nc2ccc(OC(F)(F)F)cc2s1 [riluzole]
effectiveness against ALS (ALS): effectiveness against ALS could not be confirmed

CC1=NN(c2ccccc2)C(=O)C1 [3-methyl-1-phenyl-2-pirazoline-5-on]
muscle strength of the forelimb (grip strength) (Wobbler mice [1]): the decrease in muscle strength was delayed | degree of forelimb deformity (Grades 1 to 4) (Wobbler mice [2]): the progress of muscle deformity was delayed | number of spinal motor neurons (Wobbler mice [3]): increased | mean diameter of muscle fibers (mean±SEM) (Wobbler mice [4]; right brachial biceps, P<0.01 vs control 16.8±0.6 μm): 20.3±0.8 μm | weight of the right brachial biceps muscle (Wobbler mice [4]; vs control group (FIG. 3)): significantly increased | LD50 (mouse): 2012 mg/kg | carcinogenicity [5]: noncarcinogenicity
